System: EAAT2
Test: EAAT2 protein levels in PA-EAAT2 cells by Western blot
Assay type: cell-based, human
Details: for Fold increase for EAAT2, 4 h / Fold increase for EAAT2, 24 h: compound 10 μM, PA-EAAT2 cells, relative to DMSO controls, na = not active; for Fold increase for EAAT2, 4 h: 4 h incubation; for Fold increase for EAAT2, 24 h: 24 h incubation; for SAR comparison of activity on EAAT2 protein levels, in words: relative to parent/comparator analogue, Tables 1-4
Description: All of the derivates of 1 were initially evaluated in PA-EAAT2 cells^3 (a primary astrocyte line stably expressing EAAT2 mRNAs) following compound (10 μM) incubation for 4 and 24 h before harvesting and measuring EAAT2 levels by Western blot analysis. The fold increases in EAAT2 protein levels relative to DMSO controls are reported (Tables 1-4).
Characterization and efficacy studies of a compound, Compound 212320 (FIG. 6A) is shown. […] In the absence of serum, PA-EAAT2 cells express low amounts of EAAT2 protein, although the recombinant EAAT2 mRNA are expressed (translational silencing); however, EAAT2 protein levels are increased when an activator is added to the culture (translational activation). This cell line was used for high-throughput screening to identify EAAT2 translational activators. To prioritize candidate compounds, we initially evaluated activation of EAAT2 protein in PA-EAAT2 cells. Promising compounds were further evaluated in primary dissociated neuron and astrocyte mixed cultures and then in mice. FIG. 6 presents the characterization of Compound 212320 in PA-EAAT2 cells. Compound 212320 increased EAAT2 protein levels in a dose—(FIG. 6B) and time—(FIG. 6C) dependent manner. Importantly, the induction occurred in a short amount of time (within 1-2 hr) and was sustained even up to 72 hr (data not show). Additionally, induction occurred at low nanomolar concentrations. […] (FIG. 6D).

| Structure (SMILES) | Fold increase for EAAT2, 4 h | Fold increase for EAAT2, 24 h | SAR comparison of activity on EAAT2 protein levels, in words |
| --- | --- | --- | --- |
| Fc1ccc(CSc2ccc(-c3ccccn3)nn2)c(F)c1 [Compound 7-16] | 2.4 ± 1.5 fold | 3.8 ± 0.8 fold | improved activity |
| Cc1ccccc1COc1ccc(-c2ccccn2)nc1 [Compound 15] | 1.5 ± 0.3 fold |  |  |
| Cc1ccc(CSc2ccc(-c3ccccn3)nn2)cc1 [Compound 7-28] |  |  | less potent |
| Clc1ccccc1CSc1ccc(-c2ccncc2)nn1 [Compound 7-9] | 1.5 ± 0.2 fold | 1.7 ± 0.3 fold | reduced activity |
| CCCNC(=O)c1ccc(-c2ccccn2)nn1 [Compound 17-1] |  | 1.2 ± 0.2 fold | not tolerated |
| Clc1cccc(CSc2ccc(-c3ccccn3)nn2)c1Cl [Compound 7-19] |  | 2.4 ± 0.4 fold | equivalent to 1 |
| Cc1ccccc1CSc1ccc(-c2ccccn2)cn1 [Compound 22] | 1.3 ± 0.6 fold |  |  |
| Cc1ccccc1CNc1ccc(-c2ccccn2)nn1 [Compound 14] | 1.7 ± 1.1 fold | 2.6 ± 0.5 fold | weaker activity |
| Cc1ccc(-c2ccc(SCc3c(F)cccc3Cl)nn2)cc1 [Compound 7-3] | 1.2 ± 0.2 fold | 2.3 ± 0.7 fold |  |
| Fc1cccc(F)c1CSc1ccc(-c2ccccn2)nn1 [Compound 7-25] | 2.1 ± 1.4 fold | 2.2 ± 0.7 fold | did not result in significant improvement |
| Cc1ccc(COc2ccc(-c3ccccn3)nn2)c(C)c1 [Compound 8-7] |  | 2.0 ± 0.9 fold |  |
| Fc1cccc(Cl)c1CCSc1ccc(-c2ccccn2)nn1 [Compound 7-15] | 1.9 ± 0.7 fold | 6.7 ± 1.5 fold | more potent |
| Fc1ccc(COc2ccc(-c3ccccn3)nn2)c(F)c1 [Compound 8-6] |  | 2.3 ± 0.6 fold |  |
| Clc1ccc(CSc2ccc(-c3ccccn3)nn2)c(Cl)c1 [Compound 7-21] | 1.8 ± 0.5 fold |  | equivalent to 1 |
| Fc1cccc(Cl)c1CSc1ccc(-c2ccncc2)nn1 [Compound 7-2] |  | 1.9 ± 0.9 fold | reduced activity |
| Fc1cccc(Cl)c1COc1ccc(-c2ccccn2)nn1 [Compound 8-2] | 1.1 ± 0.3 fold | 2.9 ± 0.4 fold |  |

Reference: patent US9447075B2, “Pyridazine derivatives as EAAT2 activators” (The Brigham and Women's Hospital, Inc., priority 2011, dated 2016)
